This note sets out measurements from ChEMBL document CHEMBL1144779, “Identification of novel cannabinoid CB1 receptor antagonists by using virtual screening with a pharmacophore model” (J Med Chem, 2008).

Experiment [1] addresses T1, Cannabinoid receptor 1 (Homo sapiens, UniProt P21554). The experiment can be described thus: biochemical. It counts as cell-based, HEK293.
Description: Displacement of [3H]CP-55940 from human CB1 receptor expressed in HEK293 cells
The target in experiment [2] is T2, Cannabinoid receptor 2 (Homo sapiens, UniProt P34972). The experiment can be described thus: Displacement of [3H]CP-55940 from human CB2 receptor expressed in CHO cells. The format is cell-based.
Experiment [3] concerns the target T1, Cannabinoid receptor 1.
Description: Binding affinity to CB1 receptor
For experiment [4], the target named is T2, Cannabinoid receptor 2. The experiment can be described thus: Binding affinity to CB2 receptor.
For experiment [5], the species on record is Homo sapiens. The experiment can be described thus: Selectivity for human CB1 receptor over human CB2 receptor.

Molecules are shown by their SMILES.

T2 sequence (P34972 whole entry): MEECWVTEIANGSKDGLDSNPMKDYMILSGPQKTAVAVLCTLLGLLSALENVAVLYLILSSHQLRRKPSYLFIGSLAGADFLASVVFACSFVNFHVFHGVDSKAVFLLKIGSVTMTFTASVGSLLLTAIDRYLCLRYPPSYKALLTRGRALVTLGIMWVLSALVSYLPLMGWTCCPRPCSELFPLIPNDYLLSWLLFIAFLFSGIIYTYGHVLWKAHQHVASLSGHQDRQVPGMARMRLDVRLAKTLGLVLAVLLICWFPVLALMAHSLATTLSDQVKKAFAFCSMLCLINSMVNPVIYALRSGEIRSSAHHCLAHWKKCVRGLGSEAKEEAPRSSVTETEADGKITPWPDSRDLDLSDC
T1 sequence (P21554 whole entry): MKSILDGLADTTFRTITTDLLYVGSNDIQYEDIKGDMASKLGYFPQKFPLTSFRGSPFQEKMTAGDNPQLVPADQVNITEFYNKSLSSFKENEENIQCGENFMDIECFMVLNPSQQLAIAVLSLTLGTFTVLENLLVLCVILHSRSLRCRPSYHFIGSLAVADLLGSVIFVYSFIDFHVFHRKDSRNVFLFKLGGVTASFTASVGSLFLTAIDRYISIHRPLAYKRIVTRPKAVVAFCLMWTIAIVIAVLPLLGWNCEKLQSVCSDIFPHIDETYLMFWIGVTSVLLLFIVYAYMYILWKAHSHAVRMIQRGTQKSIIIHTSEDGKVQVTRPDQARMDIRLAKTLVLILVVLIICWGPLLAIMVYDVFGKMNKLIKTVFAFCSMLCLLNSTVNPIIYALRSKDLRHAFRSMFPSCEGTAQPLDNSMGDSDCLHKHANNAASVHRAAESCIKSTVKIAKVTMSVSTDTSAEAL

For orientation: Ki means the dissociation constant of the complex between target and ligand, obtained from inhibition or displacement. High values mean a looser hold on the target, low ones a stronger hold on the target. As to `COc1ccc([C@@H]2[C@@H](Cc3cc4ccccc4o3)C(=O)N2c2ccccc2)cc1`, the Ki in experiment [1] was determined as 839 nM; in experiment [2], 194 nM.

Consider `O=C(NN1CCCCC1)c1nn(-c2ccc(Cl)cc2Cl)c(-c2ccc(-c3cccnc3)cc2)c1CO`, for which the Ki in experiment [3] was 5.8 nM; in experiment [4], 2310 nM.

For the molecule `CC(=O)SC(CCc1ccccc1)[C@H]1C(=O)N(c2ccc(F)cc2)[C@@H]1c1ccc(O)cc1` (stereo partly specified), the Ki is 52.8 nM in experiment [1] and 282 nM in experiment [2]. Besides, in experiment [5], the Ratio Ki was 5.

For `COc1ccc([C@@H]2[C@@H](CCCc3cccnc3)C(=O)N2c2ccccc2)cc1`, the inhibition constant (Ki) is 244 nM in experiment [1] and 1090 nM in experiment [2].

On to `O=C(NN1CCCCC1)c1nn(-c2ccc(Cl)cc2Cl)c2c1CCCc1cc(Cl)ccc1-2`, for which the Ki in experiment [4] was found to be 21 nM.

Regarding `O=C1[C@@H](CCC(O)c2ccc(F)cc2)[C@H](c2ccc(O)cc2)N1c1ccc(F)cc1` (stereo partly specified), the Ki in experiment [1] was 301 nM; in experiment [2], over 1820 nM.

For the molecule `CS(=O)(=O)C(=C1CN(C(c2ccc(Cl)cc2)c2ccc(Cl)cc2)C1)c1cc(F)cc(F)c1`, in experiment [3], the inhibitory constant (Ki) was under 100 nM.

As for `COc1ccc(C2C(CCS(=O)(=O)c3ccccc3)C(=O)N2c2ccccc2)cc1` (stereo unspecified), the Ki in experiment [1] worked out at 451 nM; in experiment [2], 1240 nM.

`COc1ccc(-c2oc3cc(OC)ccc3c2C(=O)c2ccc(C#N)cc2)cc1` came in with an inhibitory constant (Ki) in experiment [4] of over 10000 nM.
